Literature values, collected in US20070042062A1, “Novel anti-diabetic herbal formulation” (COUNCIL OF SCIENTIFIC AND INDUSTRIAL RESEARCH., priority 2004, published 2007).

Tests used:
[1] = system: carrageenin-induced acute oedema; conditions: mice
male volunteers = system: male volunteers; parameters: dose or concentration left out as unconfirmed; conditions: for 4 weeks
[2] = system: patients suffering from chronic antieri or ureitis (CAU); conditions: 375 mg three times a day for 12 weeks, oral; curcumin alone
monkey = conditions: in vivo

## COc1cc(/C=C/C(=O)CC(=O)/C=C/c2ccc(O)c(OC)c2)ccc1O [Curcumin, curcumin]
[1]
  oral ED50 against carrageenin-induced acute oedema: 100.2 mg/kg
Male volunteers
  side effect in phase-I trials: did not produce any side effect
[2]
  clinical outcome in CAU patients: all the patients who received curcumin alone improved
monkey
  toxicity on single or repeated oral administration: did not produce any toxicity
